{
  "source": "patent US20080153785A1",
  "about": "“Pharmaceutical Compositions Containing Biophosphonate for Improving Oral Absorption” (CHONG KUN DANG PHARMACEUTICAL CORP., priority 2005, published 2008)",
  "origin": "cited, not measured here",
  "conditions": "long-term treatment, normally taken",
  "data": [
    {"smiles": "NCCCC(O)(P(=O)(O)O)P(=O)(O)O", "note": "[alendronate, 4-Amino-1-hydroxybutylidene-1,1-biphosphonate]", "values": [
      {"measurement": "incidence of heartburn or epigastric pain", "value": "about 36 % of patients"}
    ]}
  ]
}
